In US8710067B2, “Method for the treatment, alleviation of symptoms of, relieving, improving and preventing a cognitive disease, disorder or condition” (Alcobra Ltd., priority 2009, dated 2014):

Key:
[1] = Pharmacokinetics after single administration to fasted healthy subjects (Example 1); type: in vivo, human
Text: The above mentioned formulations were given to fasted healthy patients. Blood samples were collected following a predetermined time schedule in order to characterize formulation adsorption and elimination.

ADHD/ADD adult patients [2] = test: TOVA (Test of Variables of Attention) in ADHD/ADD adult patients (Example 2); type: in vivo, human; conditions: n = 12; Bonferroni adjustment; NS, p 0.258
Procedure: (§1) 38 ADHD/ADD adult patients (age 18-45) of ADHD unit of the Geha Mental Health Center (Israel) were tested.
(§2) A total of four tablets were administered to each patient: • Two tablets of immediate release (IR) formulation (defined in Table 4) and • Two tablets of slow release (SR) formulation (defined in Table 5).
(§3) Tests at inclusion included selection of patients, and included clinical diagnosis by DSM IV, psychiatric examination, WURS & ASRS questionnaires, TOVA (Test of Variables of Attention) score, Wechsler (Wechsler Adult Intelligence Scale) subtests, BDI (Beck Depression Inventory) and STAI (State-Trait Anxiety Inventory) questionnaire.
The TOVA is a computerized test developed to assess attention and impulsivity in normal and clinical populations. Main outcome measures for the TOVA are the Omission Standard Score (SS; inattention measure) the Commission Standard Score (SS; measure of impulse control), the Response Time (RT) SS, the Variability in RT SS, and overall ADHD SS (a composite score of the previous submeasures).
(§4) The Primary outcome measure was the ADHD Score, TOVA Omission, TOVA Commission, TOVA RT and TOVA Variability analysed as Standard Score in % compared to the patient's prior performance of the TOVA test at baseline. Secondary outcome measures were Subtests from Weschler: Digit span, Symbol Search, Digit symbol.

ADHD/ADD adult patients [3] = test: Wechsler subtests in ADHD/ADD adult patients (Example 2); type: in vivo, human; conditions: single dose 1400 mg, 90 minutes after dosing
Procedure: as §1, §2, §3, §4

[4] = cited from earlier work
[5] = test system: animals with alcohol intake; conditions: animal studies, cited from earlier work
[6] = test system: frontoparietal cortex of guinea pigs; conditions: cited from earlier work
[7] = test system: abstinent chronic alcoholic; conditions: abstinent chronic alcoholics, after 1-2 months of abstinence; control group given vitamin B6; cited from earlier work
humans = conditions: long term data; cited from earlier work

Q: With Cc1ncc(CO)c(CO)c1O.O=C1CC[C@@H](C(=O)O)N1 [Metadoxine, pyridoxine L-2-pyrrolidone-5-carboxylate] as the compound, how does the “time to maximal concentration” value ([1]; FIG. 1, immediate/slow release formulations, fasted healthy subjects) read?
A: about 0.5 hour

Q: What about the “dose-linearity for Cmax and AUC” value ([1]; single administration, dose range 700 to 2100 mg, healthy Caucasian subjects) of the same compound?
A: dose-linearity was demonstrated

Q: And the “ADHD Score, Mean Difference, comparison with (3) Metadoxine 1400 mg, other group not given” value (ADHD/ADD adult patients [2])?
A: +3.687 NS

Q: And the “cognitive functions in the ADHD adult population (Wechsler subtests overall)” value (ADHD/ADD adult patients [3])?
A: confirmed the ability of Metadoxine to improve cognitive functions

Q: And the “mean half life in human serum” value ([4]; Lu Yuan et al.)?
A: about 0.8 hour

Q: And the “half life in human serum” value ([4]; oral and intravenous administration, no appreciable differences)?
A: 40 to 60 min

Q: And the bioavailability ([4]; oral)?
A: 60-80%

Q: What about the “increased production of fatty acid esters in the liver” value ([5]; during chronic alcohol intake) of the same compound?
A: inhibited

Q: And the “oxidative stress and glutathione depletion in hepatic tissues” value [5]?
A: reduced oxidative stress and prevented glutathione depletion

Q: What about the “level of GABA and acetylcholine” value [6] of the same compound?
A: increased

Q: What about the “recovery of short-term memory” value [7] of the same compound?
A: helps recovery of short-term memory

Q: And the “safety for use by humans” value (humans)?
A: safe for use by humans
